“Also recorded” adds a separate entry of the source.
Assays:
[1] = tested on: serum starved placental explants; experiment: Placental explant culture in serum-free medium, 4HNE / LC3B / LAMP2 immunohistochemistry; type: cell-based, human; settings: 24 hr of treatment; for disturbance in autophagosome size / disturbance in lysosomal location: serum starved placental explants; for production of 4HNE (induced by serum starvation): term placental explants, serum-free medium, 1 nM, p<0.05 (N=6)
From the text: For in vitro experiments, human term placentas (38-39 weeks of gestation) were obtained from women with normal singleton pregnancies without any symptoms of labour after an elective (a scheduled repeat) caesarean section. Placentas were collected immediately after delivery and prepared for explant culture. Villous tissues of placentas were randomly sampled from different regions of placenta and 4-5 mm beneath the chorionic plate. Tissues were washed several times with Dulbecco's phosphate-buffered saline (DPBS) under sterile condition to remove excess blood.
Villous explants of ˜2 mm^3 were dissected and placed into 100×20 mm culture dishes (30 pieces/dish) containing 25 ml of Dulbecco's modified Eagle's medium (DMEM) supplemented with 2 mM L-glutamine, 1% Na-pyruvate, 1% penicillin/streptomycin (100×) solution with the addition of 10% (v/v) fetal bovine serum (FBS) and were cultured in a cell culture chamber at 37° C. temperature and maintaining 95% air (20% oxygen) and 5% CO2 for 24 hours. At day 2, villous explants were transferred to fresh 30 ml growth medium and incubated in a cell culture chamber for 90 minutes. After this the tissues were washed in DMEM without FBS (refer to as ‘serum-free medium’ or ‘growth factor deficient medium’). Next 6-7 pieces of villous tissue weighing approximately 400 mg were transferred to a culture dish (60×15 mm) containing 6 ml serum-free medium with or without the addition of pharmacological agents, for example, raloxifene (1 nM) and GPER1 agonist G1 (1 nM), for subsequent incubation up to 24 h. At the end of 24 h some tissues were fixed in 2% formaldehyde, subjected to routine histological processing and embedded in paraffin wax, and some tissues were immediately frozen in liquid nitrogen and stored at −80° C. until subsequent experiments. For each placental explant culture, samples were also collected at time ‘0 (zero)’ h i.e., before incubation in serum free medium, and were formalin fixed and stored frozen at −80° C. until further experiments.
6 μm paraffin placental sections were deparaffinised and hydrated, then heated with tris-EDTA buffer (pH 9) in a microwave oven for antigen retrieval. The sections were blocked with 1% BSA in TBST for an hour at room temperature. The sections were incubated with primary antibodies overnight and washed three times with TBST, before incubation with Alexa-conjugated secondary antibodies for 90 mins. The sections were mounted with antifade solution with DAPI. The fluorescent photographs for FIGS. 3 to 7, 9 and 11 were taken on a Nikon eclipse 90i confocal microscope. The fluorescent photographs for FIG. 10 were taken on Nikon eclipse Ti fluorescence microscope.
The present data provide clear evidence for increased lipid oxidation, disordered lysosome-autophagosome interactions and increased AOX1 expression in the post-dated and stillbirth placental syncytiotrophoblast. To determine if these events were causally linked the inventors developed a placental explant culture system using term placental tissue cultured in serum-free (growth factor deficient) medium.
The inventors sought to determine cause and effect relationships between the development of lipid oxidation observed when placental explants were cultured in the absence of serum and AOX1. The GPER agonist G-1 was used to inhibit aldehyde oxidase. The potent AOX1 inhibitor, raloxifene, was also used.

[2] = tested on: kidney; settings: Lindsey et al., 2011, Hypertension, 58: 665-671; cited from earlier work

Structure (SMILES)	disturbance in autophagosome size [1]	disturbance in lysosomal location [1]	production of 4HNE (induced by serum starvation) [1]	production of 4HNE in the kidney [2]
CC(=O)c1ccc2c(c1)C1C=CCC1C(c1cc3c(cc1Br)OCO3)N2 (stereo not shown) [G1, 1-[4-(6-bromobenzo[1,3]dioxol-5yl)-3a,4,5,9b-tetrahydro-3H-cyclopenta[c]quinolin-8-yl]-ethanone]	able to block	able to block	inhibited the production of 4HNE; also recorded: significantly reduced	inhibit production of 4HNE in the kidney
O=C(c1ccc(OCCN2CCCCC2)cc1)c1c(-c2ccc(O)cc2)sc2cc(O)ccc12 [raloxifene]	able to block	able to block	inhibited the production of 4HNE; also recorded: significantly reduced	

From patent publication US20230404994A1, “MARKERS OF TISSUE AGING AND USES THEREFOR” (The University of Newcastle, priority 2017, published 2023)
